Laboratory results reported in patent US6911431B1 (priority 1989, dated 2005).

Legend:
Lewis lung carcinoma = assay: Inhibition of Lewis lung tumor neovascularization; assay type: in vivo, C57BL/6 mice
Protocol: Lewis lung carcinoma cells (5×10^7) when injected (0.1 ml) intradermally into both flanks of C57BL/6 mice (day 0) produce a visible highly vascularized tumor nodules within 7 days. By excising the tumor the degree of tumor vascularity may be determined microscopically by counting the number of large vessels radiating from the tumor mass.

Sarcoma 180 tumors = assay: Sarcoma 180 tumor size after prophylactic treatment; assay type: in vivo, Swiss-Webster mice
Protocol: Neovascularization is required for tumor growth. Anti-tumor activity of L-Glu-L-Trp was evaluated at an independent contract research organization. Sarcoma 180 tumors (ATCC CCL-8 CCRF S-180 II) were induced by injecting 2×10^6 cells/0.1 ml im into each rear flank of Swiss-Webster mice. Groups consisted of 10 animals (20 tumors). L-Glu-L-Trp was administered in a single 0.1 ml dose of either 10 μg/kg, 75 μg/kg, 250 μg/kg or 1000 μg/kg. Tumor size was evaluated by surgically removing and weighing the affected limbs, and comparing the weight with the weight of normal control (non-tumor) limbs. The first prophylactic drug regimen (PDR-1) consisted of 5 consecutive daily ip injections commencing on day −5 and ending of day −1. The second prophylactic drug regimen (PDR-2) consisted of 5 consecutive daily im injections to the left rear flank (tumor site) beginning on day −5 and ending on day −1. Sarcoma 180 cells were injected im on day 0. Saline 0.1 ml served as the negative control.

[1] = tested on: chicken embryo chorioallantoic membrane; assay: Chicken embryo chorioallantoic membrane (CAM) angiogenesis assay; assay type: in vivo; conditions: for Inhibition of Neovascularization Grade/Range / Mean % Inhibition of Neovascularization / Inhibition of Neovascularization Grade/Mean ± SD: 48 hrs; for Inhibition of Neovascularization Grade/Mean ± SD: grade scale 0-4
Protocol: Briefly, eight-day chicken embryos were removed from eggs and placed into sterile petri dishes. Individual filter paper disks were saturated with 7.5 μl of different stock solutions of L-Glu-L-Trp dissolved in sterile 0.14M NaCl to achieve final test concentrations of 0.001, 0.01, 0.1, 1.0, 10, 100, 500, and 1000 μg per disk. Disks were air dried and then inverted onto the surface of the respective embryos.
In this experiment saline served as a negative control and 10 μg/disk of heparin served as a positive control. The pentapeptide Thr-Ala-Glu-Glu-Lys (TAEEK) (SEQ ID NO 7) served as a specificity control, (i.e., for possible nonspecific effects of peptides on neovascularization at the concentrations tested). Nine-12 test disks and a corresponding number of different embryos were employed for each test concentration along with […] (each) positive and negative control embryos.

[2] = PDR-1 (ip, day −5 to −1), 10 μg/kg
[3] = PDR-1 (ip, day −5 to −1), 75 μg/kg
[4] = PDR-1 (ip, day −5 to −1), 250 μg/kg
[5] = PDR-1 (ip, day −5 to −1), 1000 μg/kg
[6] = PDR-2 (im left flank), 10 μg/kg
[7] = PDR-2 (im left flank), 75 μg/kg
[8] = PDR-2 (im left flank), 250 μg/kg
[9] = PDR-2 (im left flank), 1000 μg/kg
[10] = PDR-2 (im left rear flank, day −5 to −1), 10 μg/kg
[11] = PDR-2 (im left rear flank, day −5 to −1), 75 μg/kg
[12] = PDR-2 (im left rear flank, day −5 to −1), 250 μg/kg
[13] = PDR-2 (im left rear flank, day −5 to −1), 1000 μg/kg

O=P1(N(CCCl)CCCl)NCCCO1 (stereo not shown) [Cytoxan, reference compound]
No. Vessels (Mean ± S.D.) (Lewis lung carcinoma; Dose 200 (column head μg/kg/dose), administered only on day 2): 9 ± 5

L-Glu-L-Trp
Mean Tumor Weight Left (Sarcoma 180 tumors; PDR-1 (ip), 10 μg/kg): 3.0
Percent of Control Tumor Weight Left (Sarcoma 180 tumors; PDR-1 (ip), 10 μg/kg): 120%
Mean Tumor Weight Right (Sarcoma 180 tumors; PDR-1 (ip), 10 μg/kg): 2.9
Percent of Control Tumor Weight Right (Sarcoma 180 tumors; PDR-1 (ip), 10 μg/kg): 126%
Mean Tumor Weight Left (Sarcoma 180 tumors; PDR-1 (ip), 75 μg/kg): 3.0
Percent of Control Tumor Weight Left (Sarcoma 180 tumors; PDR-1 (ip), 75 μg/kg): 120%
Mean Tumor Weight Right (Sarcoma 180 tumors; PDR-1 (ip), 75 μg/kg): 3.0
Percent of Control Tumor Weight Right (Sarcoma 180 tumors; PDR-1 (ip), 75 μg/kg): 130%
Mean Tumor Weight Left (Sarcoma 180 tumors; PDR-1 (ip), 250 μg/kg): 2.3
Percent of Control Tumor Weight Left (Sarcoma 180 tumors; PDR-1 (ip), 250 μg/kg): 92%
Mean Tumor Weight Right (Sarcoma 180 tumors; PDR-1 (ip), 250 μg/kg): 1.9
Percent of Control Tumor Weight Right (Sarcoma 180 tumors; PDR-1 (ip), 250 μg/kg): 83%
Mean Tumor Weight Left (Sarcoma 180 tumors; PDR-1 (ip), 1000 μg/kg): 1.3
Percent of Control Tumor Weight Left (Sarcoma 180 tumors; PDR-1 (ip), 1000 μg/kg): 52%
Mean Tumor Weight Right (Sarcoma 180 tumors; PDR-1 (ip), 1000 μg/kg): 1.0
Percent of Control Tumor Weight Right (Sarcoma 180 tumors; PDR-1 (ip), 1000 μg/kg): 43%
Leg Weight Left (Sarcoma 180 tumors; [2]): 4.2 ± 0.9 g
Leg Weight Right (Sarcoma 180 tumors; [2]): 4.1 ± 0.7 g
Leg Weight Left (Sarcoma 180 tumors; [3]): 4.2 ± 0.8 g
Leg Weight Right (Sarcoma 180 tumors; [3]): 4.2 ± 0.8 g
Leg Weight Left (Sarcoma 180 tumors; [4]): 3.5 ± 1.0 g
Leg Weight Right (Sarcoma 180 tumors; [4]): 3.1 ± 0.6 g
Leg Weight Left (Sarcoma 180 tumors; [5]): 2.5 ± 0.7 g
Leg Weight Right (Sarcoma 180 tumors; [5]): 2.2 ± 0.5 g
Mean Tumor Weight Left (Sarcoma 180 tumors; [6]): 2.4
Percent of Control Tumor Weight Left (Sarcoma 180 tumors; [6]): 96%
Mean Tumor Weight Right (Sarcoma 180 tumors; [6]): 2.6
Percent of Control Tumor Weight Right (Sarcoma 180 tumors; [6]): 113%
Mean Tumor Weight Left (Sarcoma 180 tumors; [7]): 2.4
Percent of Control Tumor Weight Left (Sarcoma 180 tumors; [7]): 96%
Mean Tumor Weight Right (Sarcoma 180 tumors; [7]): 3.3
Percent of Control Tumor Weight Right (Sarcoma 180 tumors; [7]): 143%
Mean Tumor Weight Left (Sarcoma 180 tumors; [8]): 1.8
Percent of Control Tumor Weight Left (Sarcoma 180 tumors; [8]): 72%
Mean Tumor Weight Right (Sarcoma 180 tumors; [8]): 1.1
Percent of Control Tumor Weight Right (Sarcoma 180 tumors; [8]): 48%
Mean Tumor Weight Left (Sarcoma 180 tumors; [9]): 1.2
Percent of Control Tumor Weight Left (Sarcoma 180 tumors; [9]): 48%
Mean Tumor Weight Right (Sarcoma 180 tumors; [9]): 1.3
Percent of Control Tumor Weight Right (Sarcoma 180 tumors; [9]): 57%
Leg Weight Left (Sarcoma 180 tumors; [10]): 3.6 ± 0.7 g
Leg Weight Right (Sarcoma 180 tumors; [10]): 3.8 ± 0.7 g
Leg Weight Left (Sarcoma 180 tumors; [11]): 3.6 ± 0.7 g
Leg Weight Right (Sarcoma 180 tumors; [11]): 3.5 ± 0.3 g
Leg Weight Left (Sarcoma 180 tumors; [12]): 3.0 ± 0.1 g
Leg Weight Right (Sarcoma 180 tumors; [12]): 2.3 ± 0.5 g
Leg Weight Left (Sarcoma 180 tumors; [13]): 2.4 ± 0.5 g
Leg Weight Right (Sarcoma 180 tumors; [13]): 2.5 ± 0.5 g
No. Vessels (Mean ± S.D.) (Lewis lung carcinoma; 125 μg/kg/dose im daily for 5 days): 6 ± 3
No. Vessels (Mean ± S.D.) (Lewis lung carcinoma; 250 μg/kg/dose im daily for 5 days): 7 ± 2
No. Vessels (Mean ± S.D.) (Lewis lung carcinoma; 500 μg/kg/dose im daily for 5 days): 9 ± 4
No. Vessels (Mean ± S.D.) (Lewis lung carcinoma; 1000 μg/kg/dose im daily for 5 days): 12 ± 5
No. Vessels (Mean ± S.D.) (Lewis lung carcinoma; 2000 μg/kg/dose im daily for 5 days): 17 ± 7
Inhibition of Neovascularization Grade/Range ([1]; 0.001 μg/disk): 0-2
Mean % Inhibition of Neovascularization ([1]; 0.001 μg/disk): 33 ± 20%
Inhibition of Neovascularization Grade/Mean ± SD ([1]; 0.001 μg/disk): 1.3 ± 0.82
decrease in vascularity in embryos ([1]; 10 ng-1000 μg in saline): 30-88%
Inhibition of Neovascularization Grade/Range ([1]; 0.01 μg/disk): 1-2
Mean % Inhibition of Neovascularization ([1]; 0.01 μg/disk): 38 ± 13%
Inhibition of Neovascularization Grade/Mean ± SD ([1]; 0.01 μg/disk): 1.5 ± 0.53
Inhibition of Neovascularization Grade/Range ([1]; 0.1 μg/disk): 0-3
Mean % Inhibition of Neovascularization ([1]; 0.1 μg/disk): 48 ± 23%
Inhibition of Neovascularization Grade/Mean ± SD ([1]; 0.1 μg/disk): 1.9 ± 0.88
Inhibition of Neovascularization Grade/Range ([1]; 1 μg/disk): 1-4
Mean % Inhibition of Neovascularization ([1]; 1 μg/disk): 58 ± 23%
Inhibition of Neovascularization Grade/Mean ± SD ([1]; 1 μg/disk): 2.33 ± 0.89
Inhibition of Neovascularization Grade/Range ([1]; 10 μg/disk): 1-4
Mean % Inhibition of Neovascularization ([1]; 10 μg/disk): 78 ± 28%
Inhibition of Neovascularization Grade/Mean ± SD ([1]; 10 μg/disk): 3.09 ± 1.14
Inhibition of Neovascularization Grade/Range ([1]; 100 μg/disk): 3-4
Mean % Inhibition of Neovascularization ([1]; 100 μg/disk): 85 ± 18%
Inhibition of Neovascularization Grade/Mean ± SD ([1]; 100 μg/disk): 3.44 ± 0.73
Inhibition of Neovascularization Grade/Range ([1]; 500 μg/disk): 1-4
Mean % Inhibition of Neovascularization ([1]; 500 μg/disk): 60 ± 20%
Inhibition of Neovascularization Grade/Mean ± SD ([1]; 500 μg/disk): 2.4 ± 0.84
Inhibition of Neovascularization Grade/Range ([1]; 1000 μg/disk): 2-4
Mean % Inhibition of Neovascularization ([1]; 1000 μg/disk): 83 ± 20%
Inhibition of Neovascularization Grade/Mean ± SD ([1]; 1000 μg/disk): 3.3 ± 0.82

Thr-Ala-Glu-Glu-Lys (TAEEK) [pentapeptide specificity control]
Inhibition of Neovascularization Grade/Range ([1]; 0.001 μg/disk): 0-0
Mean % Inhibition of Neovascularization ([1]; 0.001 μg/disk): 0%
Inhibition of Neovascularization Grade/Mean ± SD ([1]; 0.001 μg/disk): 0 ± 0
Inhibition of Neovascularization Grade/Range ([1]; 0.01 μg/disk): 0-0
Mean % Inhibition of Neovascularization ([1]; 0.01 μg/disk): 0%
Inhibition of Neovascularization Grade/Mean ± SD ([1]; 0.01 μg/disk): 0 ± 0
Inhibition of Neovascularization Grade/Range ([1]; 0.1 μg/disk): 0-0
Mean % Inhibition of Neovascularization ([1]; 0.1 μg/disk): 0%
Inhibition of Neovascularization Grade/Mean ± SD ([1]; 0.1 μg/disk): 0 ± 0
Inhibition of Neovascularization Grade/Range ([1]; 1 μg/disk): 0-1
Mean % Inhibition of Neovascularization ([1]; 1 μg/disk): 8 ± 10%
Inhibition of Neovascularization Grade/Mean ± SD ([1]; 1 μg/disk): 0.33 ± 0.49
Inhibition of Neovascularization Grade/Range ([1]; 10 μg/disk): 0-1
Mean % Inhibition of Neovascularization ([1]; 10 μg/disk): 5 ± 10%
Inhibition of Neovascularization Grade/Mean ± SD ([1]; 10 μg/disk): 0.18 ± 0.40
Inhibition of Neovascularization Grade/Range ([1]; 100 μg/disk): 0-2
Mean % Inhibition of Neovascularization ([1]; 100 μg/disk): 18 ± 23%
Inhibition of Neovascularization Grade/Mean ± SD ([1]; 100 μg/disk): 0.67 ± 0.87
Inhibition of Neovascularization Grade/Range ([1]; 500 μg/disk): 0-1
Mean % Inhibition of Neovascularization ([1]; 500 μg/disk): 9 ± 13%
Inhibition of Neovascularization Grade/Mean ± SD ([1]; 500 μg/disk): 0.3 ± 0.48
Inhibition of Neovascularization Grade/Range ([1]; 1000 μg/disk): 0-2
Mean % Inhibition of Neovascularization ([1]; 1000 μg/disk): 18 ± 20%
Inhibition of Neovascularization Grade/Mean ± SD ([1]; 1000 μg/disk): 0.7 ± 0.82

heparin
Inhibition of Neovascularization Grade/Range ([1]; 10 μg/disk): 1-4
Mean % Inhibition of Neovascularization ([1]; 10 μg/disk): 81 ± 18%
Inhibition of Neovascularization Grade/Mean ± SD ([1]; 10 μg/disk): 3.26 ± 0.73
